Measurements as given in patent US10670605B2, “Cysteine reactive probes and uses thereof” (The Scripps Research Institute, priority 2015, dated 2020).

Assays:
Experiment in all cases: Competitive isoTOP-ABPP in situ (fragment-treated cells)
Type in all cases: cell-based
[1] = target: cysteines in MDA-MB-231 and Ramos cells (Homo sapiens, UniProt P35658); details: 200 μM, insitu
[2] = target: T1, cysteines in MDA-MB-231 and Ramos cells (Homo sapiens, UniProt Q8WVV9); details: 200 μM, insitu, 231
T1 sequence (Q8WVV9 1-542): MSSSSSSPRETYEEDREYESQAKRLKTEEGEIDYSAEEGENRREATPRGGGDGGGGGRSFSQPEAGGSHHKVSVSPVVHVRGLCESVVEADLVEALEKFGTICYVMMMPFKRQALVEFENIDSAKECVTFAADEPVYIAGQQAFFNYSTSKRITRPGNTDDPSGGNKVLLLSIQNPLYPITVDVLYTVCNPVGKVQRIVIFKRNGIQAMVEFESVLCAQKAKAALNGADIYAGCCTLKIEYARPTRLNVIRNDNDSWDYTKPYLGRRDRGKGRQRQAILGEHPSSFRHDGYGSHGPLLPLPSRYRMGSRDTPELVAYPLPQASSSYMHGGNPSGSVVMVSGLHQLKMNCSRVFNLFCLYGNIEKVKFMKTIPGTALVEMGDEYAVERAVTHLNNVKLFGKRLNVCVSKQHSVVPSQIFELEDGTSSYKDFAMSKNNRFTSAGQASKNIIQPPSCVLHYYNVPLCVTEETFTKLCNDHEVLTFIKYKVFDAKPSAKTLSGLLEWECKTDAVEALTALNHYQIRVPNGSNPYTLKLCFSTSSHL

[3] = target: T2, cysteines in MDA-MB-231 and Ramos cells (Homo sapiens, UniProt Q9NQ88); details: 200 μM, insitu
T2 sequence (Q9NQ88 1-270): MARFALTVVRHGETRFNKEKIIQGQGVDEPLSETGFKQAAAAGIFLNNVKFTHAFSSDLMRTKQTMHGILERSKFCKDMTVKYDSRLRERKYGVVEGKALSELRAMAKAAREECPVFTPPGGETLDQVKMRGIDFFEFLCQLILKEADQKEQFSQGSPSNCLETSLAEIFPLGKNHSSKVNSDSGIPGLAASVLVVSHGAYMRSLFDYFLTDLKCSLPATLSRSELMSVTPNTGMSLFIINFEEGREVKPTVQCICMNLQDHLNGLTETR

[4] = target: cysteines in MDA-MB-231 and Ramos cells (Homo sapiens, UniProt Q96EY5); details: 200 μM, insitu
[5] = target: cysteines in MDA-MB-231 and Ramos cells (Homo sapiens, UniProt Q8WWI1); details: 200 μM, insitu
[6] = target: T3, cysteines in MDA-MB-231 and Ramos cells (Homo sapiens, UniProt A0AVT1); details: 200 μM, insitu
T3 sequence (A0AVT1 1-1052): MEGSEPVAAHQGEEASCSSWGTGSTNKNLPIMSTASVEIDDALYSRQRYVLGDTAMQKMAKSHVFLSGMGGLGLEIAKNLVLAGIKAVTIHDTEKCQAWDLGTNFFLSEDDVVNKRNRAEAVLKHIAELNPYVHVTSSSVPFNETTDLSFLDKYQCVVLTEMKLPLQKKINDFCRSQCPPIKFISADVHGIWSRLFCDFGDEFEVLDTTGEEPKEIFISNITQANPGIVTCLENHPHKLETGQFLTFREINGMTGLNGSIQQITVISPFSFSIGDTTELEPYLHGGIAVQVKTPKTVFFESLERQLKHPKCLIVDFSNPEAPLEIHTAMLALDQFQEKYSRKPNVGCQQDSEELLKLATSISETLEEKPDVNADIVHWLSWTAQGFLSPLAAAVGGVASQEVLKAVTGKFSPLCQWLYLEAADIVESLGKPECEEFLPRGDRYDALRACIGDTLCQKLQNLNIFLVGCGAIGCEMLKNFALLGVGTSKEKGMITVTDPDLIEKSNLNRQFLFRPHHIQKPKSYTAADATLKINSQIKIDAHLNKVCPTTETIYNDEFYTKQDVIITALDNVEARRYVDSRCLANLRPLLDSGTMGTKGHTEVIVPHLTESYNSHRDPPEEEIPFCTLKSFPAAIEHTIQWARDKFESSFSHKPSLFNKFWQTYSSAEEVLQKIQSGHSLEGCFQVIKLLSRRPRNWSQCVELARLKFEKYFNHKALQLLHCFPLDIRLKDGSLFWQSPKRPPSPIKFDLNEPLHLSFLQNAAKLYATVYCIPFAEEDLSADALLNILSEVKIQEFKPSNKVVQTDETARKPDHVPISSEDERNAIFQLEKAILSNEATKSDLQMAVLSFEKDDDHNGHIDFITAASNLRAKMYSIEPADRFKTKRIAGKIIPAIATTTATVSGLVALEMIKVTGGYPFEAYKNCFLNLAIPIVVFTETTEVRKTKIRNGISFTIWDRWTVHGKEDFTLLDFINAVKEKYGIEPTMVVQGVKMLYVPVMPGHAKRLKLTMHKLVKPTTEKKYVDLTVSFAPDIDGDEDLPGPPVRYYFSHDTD

[7] = target: T4, cysteines in MDA-MB-231 and Ramos cells (Homo sapiens, UniProt Q8WV74); details: 200 μM, insitu, 231
T4 sequence (Q8WV74 1-236): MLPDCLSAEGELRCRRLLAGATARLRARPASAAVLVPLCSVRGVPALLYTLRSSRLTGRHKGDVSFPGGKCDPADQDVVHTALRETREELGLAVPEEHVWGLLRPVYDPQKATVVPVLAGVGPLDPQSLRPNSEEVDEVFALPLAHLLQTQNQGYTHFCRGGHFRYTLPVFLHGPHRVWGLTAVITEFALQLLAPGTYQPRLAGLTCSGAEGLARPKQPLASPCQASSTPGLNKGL

[8] = target: cysteines in MDA-MB-231 and Ramos cells (Homo sapiens, UniProt Q06203); details: 200 μM, insitu
[9] = target: T5, cysteines in MDA-MB-231 and Ramos cells (Homo sapiens, UniProt Q9Y5Y2); details: 200 μM, insitu
T5 sequence (Q9Y5Y2 1-271): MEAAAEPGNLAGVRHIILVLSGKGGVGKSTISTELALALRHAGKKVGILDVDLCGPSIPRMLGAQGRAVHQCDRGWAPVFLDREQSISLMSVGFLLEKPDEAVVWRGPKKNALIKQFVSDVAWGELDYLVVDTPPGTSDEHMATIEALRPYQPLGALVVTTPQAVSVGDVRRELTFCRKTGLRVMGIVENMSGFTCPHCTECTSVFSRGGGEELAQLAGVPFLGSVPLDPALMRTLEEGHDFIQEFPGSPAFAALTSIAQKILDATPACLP

[10] = target: cysteines in MDA-MB-231 and Ramos cells (Homo sapiens, UniProt P14635); details: 200 μM, insitu, 231
Chain of cysteines in MDA-MB-231 and Ramos cells (Homo sapiens, UniProt P14635) (P14635 whole entry): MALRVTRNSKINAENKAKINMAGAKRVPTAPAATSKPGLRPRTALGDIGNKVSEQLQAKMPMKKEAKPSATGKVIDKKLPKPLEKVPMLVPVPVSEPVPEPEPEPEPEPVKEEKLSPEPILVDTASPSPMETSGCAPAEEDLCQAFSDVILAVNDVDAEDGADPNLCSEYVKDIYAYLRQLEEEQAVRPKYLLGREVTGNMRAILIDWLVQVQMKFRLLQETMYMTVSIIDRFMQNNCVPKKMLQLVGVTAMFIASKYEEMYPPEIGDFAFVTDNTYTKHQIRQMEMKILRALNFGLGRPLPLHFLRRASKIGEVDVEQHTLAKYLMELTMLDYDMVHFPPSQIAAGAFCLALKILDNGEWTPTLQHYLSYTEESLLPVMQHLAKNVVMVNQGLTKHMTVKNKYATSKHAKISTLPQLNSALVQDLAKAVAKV

Chain of cysteines in MDA-MB-231 and Ramos cells (Homo sapiens, UniProt Q8WWI1) (Q8WWI1 whole entry): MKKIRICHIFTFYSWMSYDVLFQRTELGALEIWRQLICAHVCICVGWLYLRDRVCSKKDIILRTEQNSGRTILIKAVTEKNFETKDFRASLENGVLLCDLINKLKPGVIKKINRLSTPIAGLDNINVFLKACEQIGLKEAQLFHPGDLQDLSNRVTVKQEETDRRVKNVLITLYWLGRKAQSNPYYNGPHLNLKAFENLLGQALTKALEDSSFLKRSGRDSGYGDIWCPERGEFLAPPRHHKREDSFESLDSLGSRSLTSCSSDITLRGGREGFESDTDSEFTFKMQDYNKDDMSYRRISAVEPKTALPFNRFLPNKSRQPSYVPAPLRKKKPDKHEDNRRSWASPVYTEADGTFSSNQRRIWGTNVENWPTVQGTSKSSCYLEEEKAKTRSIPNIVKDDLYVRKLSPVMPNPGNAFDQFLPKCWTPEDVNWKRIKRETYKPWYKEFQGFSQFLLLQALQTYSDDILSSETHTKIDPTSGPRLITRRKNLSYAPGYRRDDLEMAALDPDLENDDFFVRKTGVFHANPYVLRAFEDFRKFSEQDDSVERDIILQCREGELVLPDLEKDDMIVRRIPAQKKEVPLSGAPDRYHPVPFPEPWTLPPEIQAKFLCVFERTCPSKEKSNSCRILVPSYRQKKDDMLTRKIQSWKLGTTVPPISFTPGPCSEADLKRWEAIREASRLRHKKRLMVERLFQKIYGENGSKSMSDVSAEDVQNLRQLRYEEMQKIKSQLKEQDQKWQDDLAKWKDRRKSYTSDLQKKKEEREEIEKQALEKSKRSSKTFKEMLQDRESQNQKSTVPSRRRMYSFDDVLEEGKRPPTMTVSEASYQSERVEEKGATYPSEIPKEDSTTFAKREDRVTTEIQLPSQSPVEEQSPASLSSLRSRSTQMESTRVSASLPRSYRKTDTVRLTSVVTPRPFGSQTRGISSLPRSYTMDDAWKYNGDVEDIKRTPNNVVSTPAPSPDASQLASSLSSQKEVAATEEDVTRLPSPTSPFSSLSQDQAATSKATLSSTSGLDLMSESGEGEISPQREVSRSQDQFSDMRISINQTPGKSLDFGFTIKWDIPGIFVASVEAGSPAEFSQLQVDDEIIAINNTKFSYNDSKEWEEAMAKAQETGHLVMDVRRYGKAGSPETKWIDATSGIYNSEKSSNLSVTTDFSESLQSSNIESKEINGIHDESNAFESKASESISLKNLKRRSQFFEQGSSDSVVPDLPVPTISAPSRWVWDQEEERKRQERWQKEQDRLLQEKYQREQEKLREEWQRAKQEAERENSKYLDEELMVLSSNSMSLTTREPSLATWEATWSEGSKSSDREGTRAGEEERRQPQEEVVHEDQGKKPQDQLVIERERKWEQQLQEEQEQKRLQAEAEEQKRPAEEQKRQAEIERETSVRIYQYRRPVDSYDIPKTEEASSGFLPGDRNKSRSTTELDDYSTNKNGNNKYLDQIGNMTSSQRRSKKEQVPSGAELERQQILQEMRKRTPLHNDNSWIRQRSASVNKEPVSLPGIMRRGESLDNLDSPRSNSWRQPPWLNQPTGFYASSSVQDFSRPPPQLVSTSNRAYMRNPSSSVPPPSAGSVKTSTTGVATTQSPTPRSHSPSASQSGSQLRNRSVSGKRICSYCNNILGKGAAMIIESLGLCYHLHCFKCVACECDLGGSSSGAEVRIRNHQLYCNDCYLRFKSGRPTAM
Chain of cysteines in MDA-MB-231 and Ramos cells (Homo sapiens, UniProt Q06203) (Q06203 12-517): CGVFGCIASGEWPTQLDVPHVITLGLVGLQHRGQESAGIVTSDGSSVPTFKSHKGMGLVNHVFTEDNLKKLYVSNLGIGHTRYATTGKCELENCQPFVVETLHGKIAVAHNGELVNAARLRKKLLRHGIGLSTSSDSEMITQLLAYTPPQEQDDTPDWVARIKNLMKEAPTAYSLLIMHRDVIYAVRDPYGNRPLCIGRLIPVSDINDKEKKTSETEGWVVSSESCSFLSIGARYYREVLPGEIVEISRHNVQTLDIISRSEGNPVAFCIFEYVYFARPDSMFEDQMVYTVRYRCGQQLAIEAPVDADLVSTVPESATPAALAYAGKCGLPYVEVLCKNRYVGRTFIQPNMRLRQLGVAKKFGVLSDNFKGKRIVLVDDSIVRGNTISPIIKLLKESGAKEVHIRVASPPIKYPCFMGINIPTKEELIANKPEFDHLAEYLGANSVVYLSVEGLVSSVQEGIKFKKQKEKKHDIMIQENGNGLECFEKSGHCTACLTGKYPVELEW
Chain of cysteines in MDA-MB-231 and Ramos cells (Homo sapiens, UniProt P35658) (P35658 whole entry): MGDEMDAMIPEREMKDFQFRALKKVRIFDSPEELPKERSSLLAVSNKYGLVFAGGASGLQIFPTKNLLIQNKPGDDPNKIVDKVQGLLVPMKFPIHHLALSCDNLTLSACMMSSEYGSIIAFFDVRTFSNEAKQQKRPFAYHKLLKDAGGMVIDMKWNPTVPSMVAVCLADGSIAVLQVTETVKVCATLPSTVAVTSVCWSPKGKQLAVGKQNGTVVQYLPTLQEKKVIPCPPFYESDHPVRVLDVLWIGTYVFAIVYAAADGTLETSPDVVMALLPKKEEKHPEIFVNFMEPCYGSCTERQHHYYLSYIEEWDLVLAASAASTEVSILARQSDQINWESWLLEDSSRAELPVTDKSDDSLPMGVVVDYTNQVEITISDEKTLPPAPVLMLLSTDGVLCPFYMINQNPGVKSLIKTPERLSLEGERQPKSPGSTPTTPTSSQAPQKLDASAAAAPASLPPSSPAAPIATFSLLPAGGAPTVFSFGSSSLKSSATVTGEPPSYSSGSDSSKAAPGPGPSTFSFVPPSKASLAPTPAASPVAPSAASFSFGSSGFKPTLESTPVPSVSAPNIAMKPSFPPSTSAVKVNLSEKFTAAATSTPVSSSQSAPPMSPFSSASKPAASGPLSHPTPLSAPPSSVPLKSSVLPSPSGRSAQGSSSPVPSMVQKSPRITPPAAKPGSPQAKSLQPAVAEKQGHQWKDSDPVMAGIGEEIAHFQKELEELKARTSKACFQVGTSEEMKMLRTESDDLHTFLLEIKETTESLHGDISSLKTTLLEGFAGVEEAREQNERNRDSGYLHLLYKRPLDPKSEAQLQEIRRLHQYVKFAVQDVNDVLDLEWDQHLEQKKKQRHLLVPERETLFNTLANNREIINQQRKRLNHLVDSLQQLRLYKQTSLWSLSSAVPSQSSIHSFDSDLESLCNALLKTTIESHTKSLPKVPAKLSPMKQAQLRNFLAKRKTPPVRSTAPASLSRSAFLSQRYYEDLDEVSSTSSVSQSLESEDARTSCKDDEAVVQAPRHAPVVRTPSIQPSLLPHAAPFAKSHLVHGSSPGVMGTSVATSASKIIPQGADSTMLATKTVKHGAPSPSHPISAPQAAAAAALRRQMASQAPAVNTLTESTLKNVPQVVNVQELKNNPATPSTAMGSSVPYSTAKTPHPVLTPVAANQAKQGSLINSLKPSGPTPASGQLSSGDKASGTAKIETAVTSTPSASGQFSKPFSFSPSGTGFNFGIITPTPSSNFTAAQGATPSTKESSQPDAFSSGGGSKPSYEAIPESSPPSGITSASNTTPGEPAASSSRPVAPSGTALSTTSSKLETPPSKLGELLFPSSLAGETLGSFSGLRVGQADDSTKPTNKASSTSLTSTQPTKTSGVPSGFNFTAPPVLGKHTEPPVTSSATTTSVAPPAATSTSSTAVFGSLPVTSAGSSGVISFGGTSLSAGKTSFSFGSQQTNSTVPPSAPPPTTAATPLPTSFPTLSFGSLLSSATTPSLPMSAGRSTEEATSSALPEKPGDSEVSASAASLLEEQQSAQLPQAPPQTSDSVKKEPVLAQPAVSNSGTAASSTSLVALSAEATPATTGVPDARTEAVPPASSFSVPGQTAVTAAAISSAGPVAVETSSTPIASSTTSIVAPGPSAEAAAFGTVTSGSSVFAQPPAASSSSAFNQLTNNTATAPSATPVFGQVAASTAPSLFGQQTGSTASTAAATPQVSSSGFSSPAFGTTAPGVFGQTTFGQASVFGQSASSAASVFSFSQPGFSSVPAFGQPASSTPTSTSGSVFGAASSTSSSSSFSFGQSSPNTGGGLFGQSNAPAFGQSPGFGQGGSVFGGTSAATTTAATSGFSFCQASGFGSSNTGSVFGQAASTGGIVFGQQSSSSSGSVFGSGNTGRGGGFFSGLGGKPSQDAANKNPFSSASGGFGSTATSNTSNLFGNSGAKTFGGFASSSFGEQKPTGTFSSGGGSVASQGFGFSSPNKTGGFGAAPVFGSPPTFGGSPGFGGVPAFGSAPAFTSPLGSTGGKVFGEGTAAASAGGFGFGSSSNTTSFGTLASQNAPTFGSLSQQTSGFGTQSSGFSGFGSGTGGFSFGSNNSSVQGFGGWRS

SMILES	isoTOP-ABPP ratio P35658_C728 [1]; 231	isoTOP-ABPP ratio Q9NQ88_C114 [3]; 231	isoTOP-ABPP ratio Q9NQ88_C161 [3]; 231	isoTOP-ABPP ratio Q8WWI1_C228 [5]; 231	isoTOP-ABPP ratio Q8WV74_C207 [7]	isoTOP-ABPP ratio Q06203_C100 [8]; 231	isoTOP-ABPP ratio Q8WVV9_C464 [2]	also measured
CC(C)CCOCCNC(=O)CCl [compound 27]	–	0.4	0.6	0.8	2.2	0.8	–	isoTOP-ABPP ratio A0AVT1_C347 [6]; 231: 0.8; isoTOP-ABPP ratio Q96EY5_C231 [4]; 231: 0.6
O=C(CCl)N1CCN(CC(=O)N2CCOCC2)CC1 [compound 29]	–	–	–	–	–	–	–	isoTOP-ABPP ratio P35658_C728 ([1]; ramos): 1.7; isoTOP-ABPP ratio Q9NQ88_C114 ([3]; ramos): 0.9; isoTOP-ABPP ratio Q9NQ88_C161 ([3]; ramos): 1.3; isoTOP-ABPP ratio Q96EY5_C231 ([4]; ramos): 1.1; isoTOP-ABPP ratio Q9Y5Y2_C72 ([9]; ramos): 1.1; isoTOP-ABPP ratio Q8WWI1_C228 ([5]; ramos): 1.0; isoTOP-ABPP ratio Q06203_C100 ([8]; ramos): 1.6
C=CC(=O)N(Cc1cccnc1)c1cc(C(F)(F)F)cc(C(F)(F)F)c1 [compound 31]	0.7	–	1.0	–	–	0.6	–	isoTOP-ABPP ratio Q9NQ88_C161 ([3]; ramos): 2.6; isoTOP-ABPP ratio A0AVT1_C347 ([6]; ramos): 1.9; isoTOP-ABPP ratio Q06203_C100 ([8]; ramos): 1.2
CC1CCc2ccccc2N1C(=O)CCl (centres unmarked) [compound 45]	3.1	4.6	20.0	20.0	20.0	–	20.0	–
O=C(CCl)Nc1cccc2ncccc12 [compound 51]	–	–	–	–	–	–	3.2	–

Now from value to compound, other results behind:

isoTOP-ABPP ratio P35658_C728 [1]; 231	isoTOP-ABPP ratio Q9NQ88_C114 [3]; 231	isoTOP-ABPP ratio Q9NQ88_C161 [3]; 231	isoTOP-ABPP ratio Q8WWI1_C228 [5]; 231	isoTOP-ABPP ratio Q8WV74_C207 [7]	isoTOP-ABPP ratio Q06203_C100 [8]; 231	isoTOP-ABPP ratio Q8WVV9_C464 [2]	SMILES	also measured
1.3	0.9	1.0	1.1	–	–	–	O=C(CCl)NC12CC3CC(CC(C3)C1)C2 [compound 21]	isoTOP-ABPP ratio, cysteine Q8WVV9_C464 [2]: 1.4; isoTOP-ABPP ratio, cysteine Q96EY5_C231 [4]; 231: 0.7
–	–	–	–	–	1.2	1.5	C=CC(=O)Nc1cc(F)c(N2CCN(C(=O)OC(C)(C)C)CC2)c(F)c1 [compound 38]	isoTOP-ABPP ratio Q96EY5_C231 [4]; 231: 1.8; isoTOP-ABPP ratio Q9Y5Y2_C72 [9]; 231: 1.7; isoTOP-ABPP ratio P14635_C238 [10]: 1.8
1.1	0.6	–	0.8	0.9	–	–	Cc1ccc(C=C(C#N)C(=O)NCCN2CCOCC2)cc1 [compound 41]	isoTOP-ABPP ratio A0AVT1_C347 [6]; 231: 0.6; isoTOP-ABPP ratio P14635_C238 [10]: 0.5
